These compounds were tested against HCV RNA-dependent RNA polymerase (NS5B) (Hepatitis C virus genotype 1b (isolate BK) (HCV), UniProt P26663) (assay: RNA-Dependent RNA HCV NS5B (polymerase) Assay and IC50 Determination). Conditions: purified HCV NS5B polymerase, polyA:U16 substrate, 32P-UTP incorporation; read-out: IC50.
Assay type: biochemical
In short: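 Purified NS5B was incubated with 0.5 uM polyA:U16, 10 μM UTP plus ^32P-UTP in 50 mM Hepes-KOH pH 7.5, 5 mM MgCl2, 5 mM DTT, 2% glycerol and 0.01% Triton X-100. Inhibitor reactions ran 60 min at 37° C, and radiolabelled RNA product was quantified after filter capture. IC50 values were obtained from concentration series.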

HCV RNA-dependent RNA polymerase (NS5B), sequence (P26663 2420-3010): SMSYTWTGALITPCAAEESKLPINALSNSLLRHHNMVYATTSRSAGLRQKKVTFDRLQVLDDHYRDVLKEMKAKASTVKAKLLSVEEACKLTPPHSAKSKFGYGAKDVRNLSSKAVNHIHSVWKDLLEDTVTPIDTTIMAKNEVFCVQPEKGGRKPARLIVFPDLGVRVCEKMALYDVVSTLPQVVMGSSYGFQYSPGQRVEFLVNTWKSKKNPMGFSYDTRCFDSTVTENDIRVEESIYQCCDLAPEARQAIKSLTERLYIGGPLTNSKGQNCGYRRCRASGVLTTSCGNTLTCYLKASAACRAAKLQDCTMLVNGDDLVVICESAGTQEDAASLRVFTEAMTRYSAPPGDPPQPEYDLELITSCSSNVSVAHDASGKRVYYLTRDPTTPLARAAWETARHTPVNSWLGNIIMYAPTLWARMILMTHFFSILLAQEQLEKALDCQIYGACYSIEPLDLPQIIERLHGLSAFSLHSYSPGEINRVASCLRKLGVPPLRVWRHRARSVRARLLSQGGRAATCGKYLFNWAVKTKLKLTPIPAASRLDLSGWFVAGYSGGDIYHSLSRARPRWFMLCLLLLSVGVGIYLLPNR

Compound | IC50 [µM]
CNC(=O)c1c(-c2ccc(F)cc2)oc2cc(N(CCCCCOCCCC(C)C(=O)O)S(C)(=O)=O)c(C3CC3)cc12 (stereo not drawn) [Compound 28-8B, 5-(5-{[5-Cyclopropyl-2-(4-fluoro-phenyl)-3-methylcarbamoyl-benzofuran-6-yl]-methanesulfonyl-amino}-pentyloxy)-2-methyl-pentanoic Acid] | < 0.1
CNC(=O)c1c(-c2ccc(F)cc2)oc2cc(N(CCOCCOCc3ccc(C(=O)OC)c([N+](=O)[O-])c3)S(C)(=O)=O)c(C3CC3)cc12 [Compound 29-7, 4-[2-(2-{[5-Cyclopropyl-2-(4-fluoro-phenyl)-3-methylcarbamoyl-benzofuran-6-yl]-methanesulfonyl-amino}-ethoxy)-ethoxymethyl]-2-nitro-benzoic Acid Methyl Ester] | 0.1 to 1
CNC(=O)c1c(-c2ccc(F)cc2)oc2cc(N(CCOCCOCc3ccc(C(=O)O)c([N+](=O)[O-])c3)S(C)(=O)=O)c(C3CC3)cc12 [Compound 29-8, 4-[2-(2-{[5-Cyclopropyl-2-(4-fluoro-phenyl)-3-methylcarbamoyl-benzofuran-6-yl]-methanesulfonyl-amino}-ethoxy)-ethoxymethyl]-2-nitro-benzoic Acid] | 0.1 to 1
CNC(=O)c1c(-c2ccc(F)cc2)oc2cc(N(CCOCCOCc3ccc(C(=O)OC)c(N)c3)S(C)(=O)=O)c(C3CC3)cc12 [Compound 29-9, 2-Amino-4-[2-(2-{[5-cyclopropyl-2-(4-fluoro-phenyl)-3-methylcarbamoyl-benzofuran-6-yl]-methanesulfonyl-amino}-ethoxy)-ethoxymethyl]-benzoic Acid Methyl Ester] | 0.1 to 1
CNC(=O)c1c(-c2ccc(F)cc2)oc2cc(N(CCOCCOCc3ccc(C(=O)O)c(N)c3)S(C)(=O)=O)c(C3CC3)cc12 [Compound 29-10, 2-Amino-4-[2-(2-{[5-cyclopropyl-2-(4-fluoro-phenyl)-3-methylcarbamoyl-benzofuran-6-yl]-methanesulfonyl-amino}-ethoxy)-ethoxymethyl]-benzoic Acid] | 0.1 to 1
CNC(=O)c1c(-c2ccc(F)cc2)oc2cc(N(CCOCCOCCOCC(C)=O)S(C)(=O)=O)c(C3CC3)cc12 [Compound 30-1, 5-Cyclopropyl-2-(4-fluoro-phenyl)-6-[methanesulfonyl-(2-{2-[2-(2-oxo-propoxy)-ethoxy]-ethoxy}-ethyl)-amino]-benzofuran-3-carboxylic acid methylamide] | > 1
CCOC(=O)C(C)OCCOCCOCCN(c1cc2oc(-c3ccc(F)cc3)c(C(=O)NC)c2cc1C1CC1)S(C)(=O)=O (stereo not drawn) [Compound 30-2, 2-{2-[2-(2-{[5-Cyclopropyl-2-(4-fluoro-phenyl)-3-methylcarbamoyl-benzofuran-6-yl]-methanesulfonyl-amino}-ethoxy)-ethoxy]-ethoxy}-propionic acid ethyl ester] | > 1
CCOC(=O)CCOCCOCCOCCN(c1cc2oc(-c3ccc(F)cc3)c(C(=O)NC)c2cc1C1CC1)S(C)(=O)=O [Compound 30-3, 3-{2-[2-(2-{[5-Cyclopropyl-2-(4-fluoro-phenyl)-3-methylcarbamoyl-benzofuran-6-yl]-methanesulfonyl-amino}-ethoxy)-ethoxy]-ethoxy}-propionic acid ethyl ester] | > 1
CNC(=O)c1c(-c2ccc(F)cc2)oc2cc(N(CCOCCOCCOCCOCc3cccc(C(=O)O)c3)S(C)(=O)=O)c(C3CC3)cc12 [Compound 30-4, 3-(2-{2-[2-(2-{[5-Cyclopropyl-2-(4-fluoro-phenyl)-3-methylcarbamoyl-benzofuran-6-yl]-methanesulfonyl-amino}-ethoxy)-ethoxy]-ethoxy}-ethoxymethyl)-benzoic acid] | > 1
CNC(=O)c1c(-c2ccc(F)cc2)oc2cc(N(CCOCCCc3cccc(C(C)=O)c3)S(C)(=O)=O)c(C3CC3)cc12 [Compound 30-5, 6-({2-[3-(3-Acetyl-phenyl)-propoxy]-ethyl}-methanesulfonyl-amino)-5-cyclopropyl-2-(4-fluoro-phenyl)-benzofuran-3-carboxylic acid methylamide] | > 1
CNC(=O)c1c(-c2ccc(F)cc2)oc2cc(N(CC(=O)NCC(=O)NCc3cccc(C(C)=O)c3)S(C)(=O)=O)c(C3CC3)cc12 [Compound 30-6, 6-[({[(3-Acetyl-benzylcarbamoyl)-methyl]-carbamoyl}-methyl)-methanesulfonyl-amino]-5-cyclopropyl-2-(4-fluoro-phenyl)-benzofuran-3-carboxylic acid methylamide] | > 1
CNC(=O)c1c(-c2ccc(F)cc2)oc2cc(N(CCOCCOCCOCc3ccc(C(=O)O)cc3)S(C)(=O)=O)c(C3CC3)cc12 [Compound 30-7, 4-{2-[2-(2-{[5-Cyclopropyl-2-(4-fluoro-phenyl)-3-methylcarbamoyl-benzofuran-6-yl]-methanesulfonyl-amino}-ethoxy)-ethoxy]-ethoxymethyl}-benzoic acid] | > 1
CNC(=O)c1c(-c2ccc(F)cc2)oc2cc(N(CCOCCOCCCc3cccc(C(=O)CC(=O)C(=O)O)c3)S(C)(=O)=O)c(C3CC3)cc12 [Compound 30-8, 4-(3-{3-[2-(2-{[5-Cyclopropyl-2-(4-fluoro-phenyl)-3-methylcarbamoyl-benzofuran-6-yl]-methanesulfonyl-amino}-ethoxy)-ethoxy]-propyl}-phenyl)-2,4-dioxo-butyric acid] | > 1
CNC(=O)c1c(-c2ccc(F)cc2)oc2cc(N(CCOCCCCOc3cccc(C(=O)CC(=O)C(=O)O)c3)S(C)(=O)=O)c(C3CC3)cc12 [Compound 30-9, 4-{3-[4-(2-{[5-Cyclopropyl-2-(4-fluoro-phenyl)-3-methylcarbamoyl-benzofuran-6-yl]-methanesulfonyl-amino}-ethoxy)-butoxy]-phenyl}-2,4-dioxo-butyric acid] | > 1
CNC(=O)c1c(-c2ccc(F)cc2)oc2cc(N(CCOCCOCCOCCCc3cccc(C(=O)CC(=O)C(=O)O)c3)S(C)(=O)=O)c(C3CC3)cc12 [Compound 30-10, 4-[3-(3-{2-[2-(2-{[5-Cyclopropyl-2-(4-fluoro-phenyl)-3-methylcarbamoyl-benzofuran-6-yl]-methanesulfonyl-amino}-ethoxy)-ethoxy]-ethoxy}-propyl)-phenyl]-2,4-dioxo-butyric acid] | > 1
CNC(=O)c1c(-c2ccc(F)cc2)oc2cc(N(CCOCCOCc3ccc(OC)c(C(=O)OC)c3)S(C)(=O)=O)c(C3CC3)cc12 [Compound 30-11, 5-[2-(2-{[5-Cyclopropyl-2-(4-fluoro-phenyl)-3-methylcarbamoyl-benzofuran-6-yl]-methanesulfonyl-amino}-ethoxy)-ethoxymethyl]-2-methoxy-benzoic acid methyl ester] | > 1
CNC(=O)c1c(-c2ccc(F)cc2)oc2cc(N(CCOCCOCCCCc3cccc(C(=O)CC(=O)C(=O)O)c3)S(C)(=O)=O)c(C3CC3)cc12 [Compound 30-12, 4-(3-{4-[2-(2-{[5-Cyclopropyl-2-(4-fluoro-phenyl)-3-methylcarbamoyl-benzofuran-6-yl]-methanesulfonyl-amino}-ethoxy)-ethoxy]-butyl}-phenyl)-2,4-dioxo-butyric acid] | > 1
CNC(=O)c1c(-c2ccc(F)cc2)oc2cc(N(CCOCCOCCOCCOCCOCCOCc3ccc(C(=O)O)cc3)S(C)(=O)=O)c(C3CC3)cc12 [Compound 30-13, 4-{2-[2-(2-{2-[2-(2-{[5-Cyclopropyl-2-(4-fluoro-phenyl)-3-methylcarbamoyl-benzofuran-6-yl]-methanesulfonyl-amino}-ethoxy)-ethoxy]-ethoxy}-ethoxy)-ethoxy]-ethoxymethyl}-benzoic acid] | > 1

Source: patent US10947210B2 (priority 2015, dated 2021)
